Experimental data published in publication PMC2364081, “Antagonists of retinoic acid receptors (RARs) are potent growth inhibitors of prostate carcinoma cells” (British Journal of Cancer, 2001).

Legend:
RARα [1] = target: T1, RARα (Homo sapiens, UniProt P10276); assay: Binding to baculovirus-expressed RARα; set-up: made in house; details: baculovirus-expressed receptor
T1 sequence (P10276 1-462): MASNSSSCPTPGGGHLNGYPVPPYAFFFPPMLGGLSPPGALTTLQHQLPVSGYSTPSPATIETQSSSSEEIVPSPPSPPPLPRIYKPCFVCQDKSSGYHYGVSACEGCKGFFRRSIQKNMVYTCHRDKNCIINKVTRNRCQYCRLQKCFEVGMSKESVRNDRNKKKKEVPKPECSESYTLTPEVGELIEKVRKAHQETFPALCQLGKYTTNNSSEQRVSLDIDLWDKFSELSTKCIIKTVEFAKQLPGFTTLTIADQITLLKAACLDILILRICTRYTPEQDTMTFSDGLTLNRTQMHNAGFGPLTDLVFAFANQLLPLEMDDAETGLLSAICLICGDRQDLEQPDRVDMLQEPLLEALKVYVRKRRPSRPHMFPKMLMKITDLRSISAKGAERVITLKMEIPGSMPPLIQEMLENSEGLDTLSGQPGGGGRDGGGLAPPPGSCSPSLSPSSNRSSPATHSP
Source text: (§1) Prostate cancer is one of the most common cancers in European and American males and has a high mortality rate (Landis et al, 1998; Rosenthal, 1998). Early disease is managed conservatively in Europe although in selected patients surgery is curative. In advanced disease, androgen ablation can produce symptomatic improvement, but the tumour often re-emerges in an androgen- independent and incurable form. One proposed treatment for androgen-independent prostate carcinoma is differentiation ther- apy, in which agents such as all-trans-retinoic acid (ATRA), 9-cis- retinoic acid and 1, 25-dihydroxyvitamin D3 (D3 ) are used to induce growth arrest, differentiation and sometimes apoptosis of the tumour cells (Liang et al, 1999; de Vos et al, 1997; Skowronski et al, 1994; Hedlund et al, 1997). ATRA and synthetic analogues exert their biological effects by binding to two families of retinoid receptors, […]. These are ligand-dependent transcription factors of the steroid/thyroid hormone nuclear receptor superfamily (Chambon 1994; Boehm et al, 1995). Activated RARs bind to retinoic acid-responsive elements (RAREs) in the promoters of genes and thus regulate gene expression. They also antagonize the activity of the tran- scription factor AP1 and thereby down-regulate the expression of some AP1-activated genes (Nagpal et al, 1995). One approach to unravelling the contributions of RAR sub-types to these actions has been the development of synthetic retinoids with selective activities at individual RARs and RXRs. For example, the diaryl- acetylenic retinoids allow separation of transactivation and AP1 antagonism functions at RAR (Nagpal et al, 1995). Recently, compounds that are selective for particular RAR sub-types have been synthesized: these include both agonists and antagonists (Chandraratna, 1995; Teng et al, 1999; Johnson et al, 1999). The functional selectivity of these compounds may open the way to achieving differentiation or apoptosis of tumour cells with minimal systemic side effects (Chandraratna, 1995). Cell lines that are commonly used in the evaluation of investiga- tional agents for prostate cancer include LNCaP, DU-145 and PC- 3. […] These lines are relatively insensitive to growth inhibition and induction of apoptosis by ATRA and by synthetic agonists. […] Fenretinide (4HPR) induces apoptosis of LNCaP and of PC-3 cells at 1-5 M and 25 µM, respectively (Pienta et al, 1993; Heish and Wu, 1997). Pfahl and colleagues examined the growth inhibitory effects of a panel of receptor-selective retinoids against DU145 and PC-3 cells and achieved complete growth inhibition and induction of apoptosis between 1 M and 10 M (Lu et al, 1999). […] Antagonists of retinoic acid receptors (RARs) are potent growth inhibitors of prostate carcinoma cells LA Hammond1 , CH Van Krinks2 , J Durham2 , SE Tomkins2 , RD Burnett3 , EL Jones1 , RAS Chandraratna3 and G Brown2 Divisions of 1 Cancer Studies and of 2 Immunity and Infection, University of Birmingham Medical School, Edgbaston, Birmingham B15 2TT, UK and 3 Retinoid Research, Allergan Inc., Irvine, California, USA Summary Novel synthetic antagonists of retinoic acid receptors (RARs) have been developed. To avoid interference by serum retinoids when testing these compounds, we established serum-free grown sub-lines (>3 years) of the prostate carcinoma lines LNCaP, PC3 and DU145. […] A component(s) of serum and of LNCaP-conditioned medium diminishes the activity of antagonists: this factor is not the most likely candidates IGF-1 and EGF. In vitro studies of RAR antagonists together with data from RAR-null mice lead to the hypothesis that RAR-regulated gene transcription is necessary for the survival and maintenance of prostate epithelium. […]

RARβ [2] = target: T2, RARβ (Homo sapiens, UniProt P10826); assay: Binding to baculovirus-expressed RARβ; set-up: made in house; details: baculovirus-expressed receptor
T2 sequence (P10826 1-455): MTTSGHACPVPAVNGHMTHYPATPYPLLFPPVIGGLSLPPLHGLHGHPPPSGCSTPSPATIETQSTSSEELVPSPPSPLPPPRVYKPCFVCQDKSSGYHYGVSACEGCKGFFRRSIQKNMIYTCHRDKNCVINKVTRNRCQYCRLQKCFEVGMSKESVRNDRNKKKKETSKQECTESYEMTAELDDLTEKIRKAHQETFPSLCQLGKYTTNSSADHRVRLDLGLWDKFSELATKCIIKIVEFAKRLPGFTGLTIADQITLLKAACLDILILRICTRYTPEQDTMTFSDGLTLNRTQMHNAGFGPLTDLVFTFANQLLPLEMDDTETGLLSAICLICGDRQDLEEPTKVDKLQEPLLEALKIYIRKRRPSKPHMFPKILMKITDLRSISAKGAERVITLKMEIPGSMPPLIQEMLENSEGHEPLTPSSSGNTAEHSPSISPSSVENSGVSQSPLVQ
Source text: as §1

RARγ = target: T3, RARγ (Homo sapiens, UniProt P13631); assay: Binding to baculovirus-expressed RARγ; set-up: made in house; details: baculovirus-expressed receptor
T3 sequence (P13631 1-454): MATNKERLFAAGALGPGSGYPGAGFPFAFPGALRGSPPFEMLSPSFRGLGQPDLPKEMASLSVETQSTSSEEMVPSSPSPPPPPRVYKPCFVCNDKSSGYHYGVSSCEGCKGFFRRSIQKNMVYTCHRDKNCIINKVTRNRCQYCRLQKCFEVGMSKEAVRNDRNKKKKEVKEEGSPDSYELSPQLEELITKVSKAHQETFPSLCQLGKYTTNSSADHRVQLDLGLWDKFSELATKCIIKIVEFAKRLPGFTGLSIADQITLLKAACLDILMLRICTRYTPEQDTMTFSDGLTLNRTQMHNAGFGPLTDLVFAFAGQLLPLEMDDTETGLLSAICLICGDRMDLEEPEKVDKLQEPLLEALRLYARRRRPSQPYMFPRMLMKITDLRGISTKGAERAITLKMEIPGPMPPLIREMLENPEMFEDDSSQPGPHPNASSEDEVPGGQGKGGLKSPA
Source text: as §1

RARα [3] = target: T1, RARα; assay: Transactivation by RARα in doubly transfected CV-1 cells (MTV-TREp-LUC reporter); assay type: cell-based; set-up: expressed in transfected cells; host or cells: CV-1 cells
Source text: (§2) Prostate cancer is one of the most common cancers in European and American males and has a high mortality rate (Landis et al, 1998; Rosenthal, 1998). Early disease is managed conservatively in Europe although in selected patients surgery is curative. In advanced disease, androgen ablation can produce symptomatic improvement, but the tumour often re-emerges in an androgen- independent and incurable form. One proposed treatment for androgen-independent prostate carcinoma is differentiation ther- apy, in which agents such as all-trans-retinoic acid (ATRA), 9-cis- retinoic acid and 1, 25-dihydroxyvitamin D3 (D3 ) are used to induce growth arrest, differentiation and sometimes apoptosis of the tumour cells (Liang et al, 1999; de Vos et al, 1997; Skowronski et al, 1994; Hedlund et al, 1997). ATRA and synthetic analogues exert their biological effects by binding to two families of retinoid receptors, the RARs (RAR, RAR and RAR) and the RXRs (RXR, RXR and RXR). These are ligand-dependent transcription factors of the steroid/thyroid hormone nuclear receptor superfamily (Chambon 1994; Boehm et al, 1995). Activated RARs bind to retinoic acid-responsive elements (RAREs) in the promoters of genes and thus regulate gene expression. They also antagonize the activity of the tran- scription factor AP1 and thereby down-regulate the expression of some AP1-activated genes (Nagpal et al, 1995). One approach to unravelling the contributions of RAR sub-types to these actions has been the development of synthetic retinoids with selective activities at individual RARs and RXRs. For example, the diaryl- acetylenic retinoids allow separation of transactivation and AP1 antagonism functions at RAR (Nagpal et al, 1995). Recently, compounds that are selective for particular RAR sub-types have been synthesized: these include both agonists and antagonists (Chandraratna, 1995; Teng et al, 1999; Johnson et al, 1999). The functional selectivity of these compounds may open the way to achieving differentiation or apoptosis of tumour cells with minimal systemic side effects (Chandraratna, 1995). […]

RARβ [4] = target: T2, RARβ; assay: Transactivation by RARβ in doubly transfected CV-1 cells (MTV-TREp-LUC reporter); assay type: cell-based; set-up: expressed in transfected cells; host or cells: CV-1 cells; key to EC50 transactivation RARβ: NA: inactive; WA: weak partial agonist
Source text: as §2

LNCaP ITS+ cells = assay: Plate colony formation (clonal proliferation) assay, serum-free (ITS+)-grown LNCaP; assay type: cell-based, human
Source text: as §1

Question: How did the Kd (RARα [1]) turn out when CC1(C)CCC(C)(C)c2cc(C(=O)Nc3cc(F)c(C(=O)O)c(F)c3)c(O)cc21 [AGN194078] was run?
Answer: The Kd was 4 nM.

Question: And the Kd (RARβ [2])?
Answer: The Kd was over 5000 nM.

Question: And the Kd (RARγ)?
Answer: The Kd was over 5000 nM.

Question: What about the EC50 (RARα [3]) of the same compound?
Answer: The EC50 was 140 nM.

Question: What about the “EC50 transactivation RARβ” value (RARβ [4]) of the same compound?
Answer: The value was “WA”.

Question: C/C(=C\c1ccc(C(=O)O)cc1)c1ccc2c(c1)C(C)(C)CCC2(C)C [TTNPB, reference compound] was tested. Which “inhibition of colony formation” value (LNCaP ITS+ cells; TTNPB alone at 10 -6 M) did it give?
Answer: Its value is over 90%.

Question: What about the “inhibition of colony formation” value (LNCaP ITS+ cells; TTNPB alone at 10 -7 M) of the same compound?
Answer: Its value is ~ 10%.
